Values of other authors as cited in patent US20100112724A1, “METHOD OF DETERMINATION OF PROTEIN LIGAND BINDING AND OF THE MOST PROBABLE LIGAND POSE IN PROTEIN BINDING SITE” (priority 2007, published 2010).

Test system: protein of the protein-ligand complex (pdb code)
Conditions: experimentally known binding affinity of test and training protein-ligand complexes selected from PDB, structures described in publications [7, 8, 9]

Structure (SMILES)	ΔG, kcal/mol (free energy of ligand-protein binding)
O[C@@H]1[C@@H](O)[C@@H](O)CO[C@H]1O [1ABE]	-9.2 kcal/mol
CC(=O)N[C@H]1[C@H]([C@H](O)[C@H](O)CO)OC(C(=O)O)=C[C@@H]1N=C(N)N [2QWE]	-10.2 kcal/mol
CC(=O)N[C@H]1[C@H]([C@H](O)[C@H](O)CO)OC(C(=O)O)=C[C@@H]1N [2QWD]	-6.6 kcal/mol
OC[C@H]1O[C@H](O[C@H]2[C@H](O)[C@@H](O)[C@H](O)O[C@@H]2CO)[C@H](O)[C@@H](O)[C@@H]1O [1ANF]	-7.3 kcal/mol
CC(=O)N[C@H]1[C@H]([C@H](O)[C@H](O)CO)O[C@@](O)(C(=O)O)C[C@@H]1O [2QWB]	-3.7 kcal/mol
NCCc1ccccc1 [1TNJ]	-2.7 kcal/mol
N[C@H]1C[C@@H]1c1ccccc1 [1TNL]	-2.6 kcal/mol
CCN(CC)C(=O)[C@@H]1OC(C(=O)O)=C[C@H](N)[C@H]1NC(C)=O [2QWG]	-11.5 kcal/mol
CC(C)C[C@H](NP(=O)(O)O)C(N)=O [2TMN]	-8 kcal/mol
COc1ccc(N2C[C@H](O)c3cc(S(N)(=O)=O)sc3S2(=O)=O)cc1 [1BNT]	-13.9 kcal/mol
C[C@H]1O[C@H](O)[C@H](O)[C@@H](O)[C@H]1O [1ABF]	-7.3 kcal/mol
C[C@]12CCC(=O)C[C@H]1CC[C@@H]1[C@@H]2CC[C@]2(C)C(=O)CC[C@@H]12 [1DBK]	-11 kcal/mol
CC(=O)N[C@H]1[C@H]([C@@H](O)[C@@H](O)CO)O[C@@](O)(C(=O)O)C[C@@H]1O [1NSC]	-4.1 kcal/mol
C[C@H]1O[C@@H](O)[C@H](O)[C@@H](O)[C@H]1O [1APB]	-7.8 kcal/mol
CC(=O)N[C@H]1[C@H]([C@H](O)[C@H](O)CO)OC(C(=O)O)=C[C@@H]1O [2QWC]	-4.8 kcal/mol
COc1cccc(N2CCc3cc(S(N)(=O)=O)sc3S2(=O)=O)c1 [1BNN]	-14.2 kcal/mol
CC(=O)N[C@H]1[C@H]([C@H](O)[C@H](O)CO)OC(C(=O)O)=C[C@@H]1O [1NNB]	-7.2 kcal/mol
Nc1ccnc2c1ncn2[C@@H]1O[C@H](CO)[C@@H](O)[C@H]1O [1ADD]	-9.2 kcal/mol
CCN[C@H]1CN(CCOC)S(=O)(=O)c2sc(S(N)(=O)=O)cc21 [1BNQ]	-13.5 kcal/mol
O[C@@H]1[C@@H](O)[C@@H](O)OC[C@@H]1O [1BAP]	-9.3 kcal/mol
CN[C@H]1CN(c2cccc(OC)c2)S(=O)(=O)c2sc(S(N)(=O)=O)cc21 [1BNM]	-14.2 kcal/mol

Further lines, results first:

ΔG, kcal/mol (free energy of ligand-protein binding)	Structure (SMILES)
-10.7 kcal/mol	OC[C@H]1O[C@@H](O)[C@H](O)[C@@H](O)[C@H]1O [9ABP]
-10.1 kcal/mol	Nc1nc(=O)c2nc(CNc3ccc(C(=O)N[C@@H](CCC(=O)O)C(=O)O)cc3)cnc2[nH]1 [1DHF]
-8.7 kcal/mol	C[C@H]1O[C@H](O)[C@H](O)[C@@H](O)[C@H]1O [7ABP]
-5.3 kcal/mol	O=C(O)[C@@H](O)Cc1ccccc1 [2CTC]
-12.6 kcal/mol	CNC(=O)[C@H](Cc1ccccc1)NC(=O)[C@@H](CC(=O)NO)CC(C)C [1MNC]
-7.1 kcal/mol	Nc1nc2c(ncn2[C@@H]2O[C@H](CO)[C@@H](O)[C@H]2OP(=O)(O)O)c(=O)[nH]1 [1RNT]
-4 kcal/mol	N=C(N)c1ccccc1 [1DWB]
-9.3 kcal/mol	CC1=C(/C=C/C(C)=C/C=C/C(C)=C/CO)C(C)(C)CCC1 [1BRP]
-6.6 kcal/mol	O=C(O)COP(=O)(O)O [2YPI]
-4.4 kcal/mol	O=P(O)(O)OC[C@@H](O)CO [6TIM]
-4 kcal/mol	NCC1CCCCC1 [1TNG]
-13.8 kcal/mol	NS(=O)(=O)c1cc2c(s1)S(=O)(=O)N(Cc1cccs1)C[C@@H]2O [1BNU]
-2 kcal/mol	NCCCc1ccccc1 [1TNK]
-12.9 kcal/mol	CCN[C@H]1C[C@H](C)S(=O)(=O)c2sc(S(N)(=O)=O)cc21 [1CIL]
-8.7 kcal/mol	O=C(O)C[C@@H](Cc1ccccc1)C(=O)O [1CBX]
-11.9 kcal/mol	CN[C@H]1C[C@H](C)S(=O)(=O)c2sc(S(N)(=O)=O)cc21 [1CIN]

ΔG, kcal/mol (free energy of ligand-protein binding)	Structure (SMILES)
-7.8 kcal/mol	O=C(O)[C@H](O)[C@@H](O)[C@H](O)[C@H](O)COP(=O)(O)O [1PGP]
-10.7 kcal/mol	OC[C@H]1O[C@H](O)[C@H](O)[C@@H](O)[C@H]1O [8ABP]
-12.9 kcal/mol	NS(=O)(=O)c1ccc(S(=O)(=O)NCc2cccs2)s1 [1BNW]
-2.3 kcal/mol	NCCCCc1ccccc1 [1TNI]
-9.2 kcal/mol	CC1=C(/C=C/C(C)=C/C=C/C(C)=C/CO)C(C)(C)CCC1 [1RBP]
-10.2 kcal/mol	OC[C@H]1O[C@@H](O)[C@H](O)[C@@H](O)[C@@H]1O [2GBP]
-8.9 kcal/mol	OC[C@H]1O[C@H](O)[C@H](O)[C@@H](O)[C@H]1O [5ABP]
-6.3 kcal/mol	N=C(N)c1ccccc1 [3PTB]
-8.9 kcal/mol	OC[C@H]1O[C@@H](O)[C@H](O)[C@@H]1O [2DRI]
-7.4 kcal/mol	O=C(COP(=O)(O)O)NO [7TIM]
-10.3 kcal/mol	O=C(O)C[C@H](NC(=O)CP(=O)(O)O)C(=O)O [8ATC]
-9.8 kcal/mol	N[C@@H](Cc1c[nH]cn1)C(=O)O [1HSL]
-8.4 kcal/mol	Cc1ccc(S(=O)(=O)N[C@@H](Cc2cccc(C(=N)N)c2)C(=O)N2CCCCC2)cc1 [1PPH]
-12 kcal/mol	C[C@H]1C[C@H](N)c2cc(S(N)(=O)=O)sc2S1(=O)=O [1CIM]
-11.9 kcal/mol	CC(=O)[C@H]1CC[C@H]2[C@@H]3CC[C@H]4C[C@@H](OC(=O)CCC(=O)O)CC[C@]4(C)[C@H]3CC[C@]12C [2DBL]
-8.1 kcal/mol	C[C@H](NC(=O)[C@@H](CS)Cc1ccccc1)C(=O)NCC(N)=O [1JAO]
